Calls of active or inactive are those of the source.
Assays:
HEK293 [1] = experiment: EBV LMP1 TES2 canonical NF-kB signalling blockers – cell-based, HEK293, luciferase, cherry-pick, dose response (AID 588343); type: functional; conditions: Homo sapiens
[2] = target: Latent membrane protein 1 (Human herpesvirus 4 (strain B95-8), UniProt P03230); experiment: LMP1 TES1 pathway selectivity over dsRED control – imaging, HEK293T, dual-color eGFP/dsRED, cherry-picks, selectivity assay for LMP1 NF-kB inhibitor project, dose response (AID 588398); type: functional, cell-based
Latent membrane protein 1, sequence (P03230 whole entry): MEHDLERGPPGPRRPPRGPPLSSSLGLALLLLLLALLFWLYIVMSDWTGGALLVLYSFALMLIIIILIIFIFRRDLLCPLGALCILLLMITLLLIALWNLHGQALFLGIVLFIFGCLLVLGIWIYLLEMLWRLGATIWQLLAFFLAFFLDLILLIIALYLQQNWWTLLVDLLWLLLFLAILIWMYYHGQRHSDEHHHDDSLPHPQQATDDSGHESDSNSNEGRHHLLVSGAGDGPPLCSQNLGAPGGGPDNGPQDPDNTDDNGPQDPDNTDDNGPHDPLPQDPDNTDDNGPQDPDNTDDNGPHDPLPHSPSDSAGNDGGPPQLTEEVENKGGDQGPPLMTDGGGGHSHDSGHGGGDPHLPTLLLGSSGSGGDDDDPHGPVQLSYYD

Streptokinase A = target: T1, Streptokinase A (Streptococcus pyogenes serotype M1, UniProt P10520); experiment: viability-normalized secreted streptokinase activity reduction – plasminogen activation absorbance, OD405, dose response (AID 1914); type: functional, Streptococcus pyogenes M1 GAS;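 further: secreted streptokinase activity via plasminogen activation per viability signal from cell pellet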
T1 sequence (P10520 whole entry): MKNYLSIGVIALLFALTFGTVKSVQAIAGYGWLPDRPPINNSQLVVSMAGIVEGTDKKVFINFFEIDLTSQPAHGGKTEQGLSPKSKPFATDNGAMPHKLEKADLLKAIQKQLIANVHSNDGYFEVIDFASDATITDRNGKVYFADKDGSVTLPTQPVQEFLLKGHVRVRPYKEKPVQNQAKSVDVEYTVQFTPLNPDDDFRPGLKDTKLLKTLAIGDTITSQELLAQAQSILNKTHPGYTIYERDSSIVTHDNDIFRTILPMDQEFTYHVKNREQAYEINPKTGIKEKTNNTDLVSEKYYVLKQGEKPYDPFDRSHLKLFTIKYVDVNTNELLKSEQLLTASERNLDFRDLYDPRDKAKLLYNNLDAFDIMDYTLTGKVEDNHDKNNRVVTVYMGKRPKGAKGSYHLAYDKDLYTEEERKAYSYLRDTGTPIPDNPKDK

[3] = CCR5-tropic HIV-1 fusion blockers – cell-based, CCR5-tropic Env, dose response (AID 2279); type: functional
Vero = experiment: viability of Vero cells under compound – cytotoxicity control for flavivirus capping enzyme inhibitors (AID 588742); type: functional; conditions: Chlorocebus sabaeus
HEK293 [4] = experiment: cells; type: functional, cell-based; conditions: Homo sapiens
[5] = system: Streptococcus sp. 'group A'; experiment: Streptococcus pyogenes SK(-)GAS viability under kanamycin – luminescence, BacTiterGlo, confirmation, counter-screen for streptokinase expression inhibitor project, dose response (AID 1900); type: functional, organism-based
Streptococcus = experiment: GAS UMAA2166 growth inhibition – luminescence, BacTiterGlo, counter-screen for streptokinase expression inhibitor project, dose response (AID 1915); type: functional, organism-based;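 further: potency for reduction of bacterial viability or growth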
Phospholipase A2 = Phospholipase A2 (Homo sapiens, UniProt P04054); type: functional;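 further: confirmatory dose-response counterscreen on phospholipase A2, testing hits that came from an ultra-high-throughput screen for ATG4B inhibitors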
Phospholipase A2, sequence (P04054 whole entry): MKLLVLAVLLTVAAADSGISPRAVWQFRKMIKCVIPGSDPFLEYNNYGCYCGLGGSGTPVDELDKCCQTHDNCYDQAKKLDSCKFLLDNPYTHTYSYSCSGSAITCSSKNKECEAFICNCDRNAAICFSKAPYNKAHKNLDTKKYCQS

HEK293 [6] = experiment: NOD2 signaling inhibitors in MDP-stimulated cells, cell-based, uHTS, luminescence (AID 2001); type: functional; conditions: Homo sapiens
Genome polyprotein = Genome polyprotein (dengue virus type 2, UniProt P29990); experiment: flavivirus cap methylation enzyme inhibition – biochemical, confirmation dose response, primary screen (AID 588689); type: functional
Genome polyprotein, sequence (P29990 2492-3391 limits assumed): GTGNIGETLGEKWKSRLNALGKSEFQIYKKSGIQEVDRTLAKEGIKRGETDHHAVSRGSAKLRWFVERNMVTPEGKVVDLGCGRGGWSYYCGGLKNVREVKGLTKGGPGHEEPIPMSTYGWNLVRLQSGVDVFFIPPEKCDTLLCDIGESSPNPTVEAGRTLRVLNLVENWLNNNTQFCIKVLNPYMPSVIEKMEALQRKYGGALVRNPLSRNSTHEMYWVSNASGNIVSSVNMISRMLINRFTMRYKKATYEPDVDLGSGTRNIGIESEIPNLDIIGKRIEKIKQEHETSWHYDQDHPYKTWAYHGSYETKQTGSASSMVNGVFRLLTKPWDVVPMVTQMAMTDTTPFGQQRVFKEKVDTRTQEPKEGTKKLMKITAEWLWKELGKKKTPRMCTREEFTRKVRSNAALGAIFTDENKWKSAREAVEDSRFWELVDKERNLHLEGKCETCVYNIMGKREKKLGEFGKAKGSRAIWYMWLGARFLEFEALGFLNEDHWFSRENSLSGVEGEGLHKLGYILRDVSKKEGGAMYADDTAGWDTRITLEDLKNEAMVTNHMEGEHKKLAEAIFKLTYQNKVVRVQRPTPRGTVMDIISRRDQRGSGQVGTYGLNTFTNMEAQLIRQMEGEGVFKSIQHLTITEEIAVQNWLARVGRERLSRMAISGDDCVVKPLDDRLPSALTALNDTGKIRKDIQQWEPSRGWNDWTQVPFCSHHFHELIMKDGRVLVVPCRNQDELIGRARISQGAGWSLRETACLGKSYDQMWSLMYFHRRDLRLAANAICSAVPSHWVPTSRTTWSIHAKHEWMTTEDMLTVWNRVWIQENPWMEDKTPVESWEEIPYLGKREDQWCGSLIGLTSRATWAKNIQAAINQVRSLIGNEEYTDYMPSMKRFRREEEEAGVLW

HEK293 [7] = experiment: cells; type: functional, cell-based; conditions: Homo sapiens; remark: listed apart in the source
Cysteine protease ATG4B = Cysteine protease ATG4B (Homo sapiens, UniProt Q9Y4P1); type: functional;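 further: Fluorescence-based dose-response confirmation assay measuring inhibition of ATG4B activity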
Cysteine protease ATG4B, sequence (Q9Y4P1 whole entry): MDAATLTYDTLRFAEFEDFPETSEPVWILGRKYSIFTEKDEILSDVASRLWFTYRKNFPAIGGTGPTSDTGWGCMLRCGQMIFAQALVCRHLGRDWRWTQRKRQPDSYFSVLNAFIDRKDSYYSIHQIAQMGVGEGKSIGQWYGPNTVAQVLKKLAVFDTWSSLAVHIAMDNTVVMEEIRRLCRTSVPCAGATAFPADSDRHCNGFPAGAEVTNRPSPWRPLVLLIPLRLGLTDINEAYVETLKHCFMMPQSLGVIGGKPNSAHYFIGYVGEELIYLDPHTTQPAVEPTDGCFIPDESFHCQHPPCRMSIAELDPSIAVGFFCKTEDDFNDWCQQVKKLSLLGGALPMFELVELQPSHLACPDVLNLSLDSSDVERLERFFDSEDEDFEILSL

HEK293 [8] = experiment: inhibition of NOD1-driven NF-kB reporter – cell-based, luminescence, uHTS, primary screen (AID 1578); type: functional; conditions: Homo sapiens
[9] = target: T2, Ubiquitin-conjugating enzyme E2 N (Homo sapiens, UniProt P61088); type: functional;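 further: Dose-response confirmation in a TR-FRET assay detecting UBC13-driven polyubiquitin chain formation, inhibition measured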
T2 sequence (P61088 whole entry): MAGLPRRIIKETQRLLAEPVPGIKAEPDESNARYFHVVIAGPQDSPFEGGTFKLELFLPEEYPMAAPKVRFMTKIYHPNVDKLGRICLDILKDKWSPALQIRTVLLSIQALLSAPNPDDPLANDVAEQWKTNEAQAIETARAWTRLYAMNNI

[10] = target: Multidrug resistance protein CDR1 (Candida albicans, UniProt P43071); experiment: Candida albicans Cdr1 pump inhibition curves – singleplex, Cherry Pick2 set, dose response (AID 623996); type: functional; conditions: read-out: EC50_MICROM
[11] = target: T3, Multidrug resistance protein CDR2 (Candida albicans (strain SC5314 / ATCC MYA-2876) (Yeast), UniProt P78595); experiment: inhibition of Nile Red efflux via Candida CDR2 – S. cerevisiae AD1-8u, singleplex, Cherry Pick1 hits, dose response (AID 588604); type: functional
T3 sequence (P78595 whole entry): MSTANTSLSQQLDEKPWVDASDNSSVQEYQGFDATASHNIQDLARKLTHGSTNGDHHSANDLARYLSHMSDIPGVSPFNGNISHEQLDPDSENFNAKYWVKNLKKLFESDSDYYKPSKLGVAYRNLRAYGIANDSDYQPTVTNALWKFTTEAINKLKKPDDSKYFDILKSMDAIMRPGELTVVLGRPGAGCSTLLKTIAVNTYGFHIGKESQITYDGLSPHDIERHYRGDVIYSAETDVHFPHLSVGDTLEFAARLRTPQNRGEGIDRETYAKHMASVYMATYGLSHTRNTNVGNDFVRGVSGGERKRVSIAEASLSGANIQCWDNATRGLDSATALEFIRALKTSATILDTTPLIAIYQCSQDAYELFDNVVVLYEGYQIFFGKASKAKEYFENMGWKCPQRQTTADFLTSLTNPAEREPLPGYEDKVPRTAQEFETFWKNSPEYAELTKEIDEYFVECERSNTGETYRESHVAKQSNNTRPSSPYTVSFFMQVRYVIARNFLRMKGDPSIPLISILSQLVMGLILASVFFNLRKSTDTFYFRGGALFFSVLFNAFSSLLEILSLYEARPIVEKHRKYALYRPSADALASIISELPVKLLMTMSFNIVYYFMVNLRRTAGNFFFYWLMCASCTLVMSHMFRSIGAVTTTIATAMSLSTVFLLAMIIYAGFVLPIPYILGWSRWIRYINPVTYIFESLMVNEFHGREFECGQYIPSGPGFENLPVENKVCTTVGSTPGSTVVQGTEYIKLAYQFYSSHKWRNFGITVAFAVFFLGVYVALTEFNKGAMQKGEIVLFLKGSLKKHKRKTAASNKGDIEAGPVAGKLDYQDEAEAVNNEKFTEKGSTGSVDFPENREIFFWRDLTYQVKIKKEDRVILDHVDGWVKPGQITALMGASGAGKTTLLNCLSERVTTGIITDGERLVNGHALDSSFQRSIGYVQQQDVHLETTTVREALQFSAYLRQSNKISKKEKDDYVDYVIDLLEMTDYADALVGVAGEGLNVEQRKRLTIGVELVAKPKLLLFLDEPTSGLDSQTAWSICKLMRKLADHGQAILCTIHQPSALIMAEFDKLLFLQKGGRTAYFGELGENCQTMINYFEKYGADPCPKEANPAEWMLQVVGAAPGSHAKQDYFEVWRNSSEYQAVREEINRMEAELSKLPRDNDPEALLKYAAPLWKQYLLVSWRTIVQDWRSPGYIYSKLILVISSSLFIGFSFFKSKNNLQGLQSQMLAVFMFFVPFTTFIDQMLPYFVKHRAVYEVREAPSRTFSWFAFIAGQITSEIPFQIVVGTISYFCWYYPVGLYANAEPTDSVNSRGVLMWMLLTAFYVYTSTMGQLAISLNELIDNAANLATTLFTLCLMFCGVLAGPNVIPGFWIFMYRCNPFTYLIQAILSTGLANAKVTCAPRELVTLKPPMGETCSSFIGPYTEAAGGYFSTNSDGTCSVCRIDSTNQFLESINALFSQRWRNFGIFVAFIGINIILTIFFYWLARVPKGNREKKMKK

[12] = target: T3, Multidrug resistance protein CDR2; experiment: blockers of Nile Red efflux by Candida CDR2 – S. cerevisiae AD1-8u, singleplex, Cherry Pick2 set, dose response (AID 623994); type: functional; conditions: read-out: EC50_MICROM
[13] = target: Benomyl/methotrexate resistance protein (Candida albicans, UniProt P28873); experiment: Candida albicans Mdr1 pump blockade titration – singleplex, Cherry Pick2 set, dose response (AID 623992); type: functional; conditions: read-out: EC50_MICROM
Benomyl/methotrexate resistance protein, sequence (P28873 whole entry): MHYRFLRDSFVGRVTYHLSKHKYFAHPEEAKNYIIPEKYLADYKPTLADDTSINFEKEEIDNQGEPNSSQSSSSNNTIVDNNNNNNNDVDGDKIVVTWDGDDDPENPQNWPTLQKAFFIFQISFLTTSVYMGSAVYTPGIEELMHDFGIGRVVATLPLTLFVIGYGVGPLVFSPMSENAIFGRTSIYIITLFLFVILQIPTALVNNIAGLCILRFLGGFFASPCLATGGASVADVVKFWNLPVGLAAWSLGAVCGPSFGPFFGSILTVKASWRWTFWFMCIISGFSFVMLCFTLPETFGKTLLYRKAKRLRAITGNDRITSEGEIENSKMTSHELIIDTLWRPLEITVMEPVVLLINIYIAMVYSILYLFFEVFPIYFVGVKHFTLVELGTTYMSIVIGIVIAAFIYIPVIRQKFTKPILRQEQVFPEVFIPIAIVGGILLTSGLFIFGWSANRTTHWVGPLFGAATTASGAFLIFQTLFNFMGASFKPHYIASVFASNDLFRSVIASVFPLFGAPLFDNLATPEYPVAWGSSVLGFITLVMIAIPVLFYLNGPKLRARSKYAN

[14] = Luminescence Cell-Based Dose Retest to Confirm Inhibitors of Cancer Stem Cells. [Related pubchem assays (depositor defined):AID2717, AID2721]; type: functional; conditions: Homo sapiens
INS1 [15] = experiment: suppression of cytokine-induced beta-cell apoptosis – INS-1E, caspase luminescence, dry powder, beta-cell apoptosis inhibitor project, dose response (AID 488848); type: functional, cell-based; conditions: Rattus norvegicus
INS1 [16] = experiment: suppression of NO production in INS-1E cells – cell-based, Griess absorbance, dry powder, set 2, dose response (AID 488868); type: functional; conditions: Rattus norvegicus
Phospholipase D2 = Phospholipase D2 (Homo sapiens, UniProt O14939); experiment: cellular phospholipase D2 inhibition IC50 – cell-based, dose response (AID 602147); type: functional;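 further: cellular assay in HEK293 cells overexpressing GFP-tagged PLD2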
Phospholipase D2, sequence (O14939 whole entry): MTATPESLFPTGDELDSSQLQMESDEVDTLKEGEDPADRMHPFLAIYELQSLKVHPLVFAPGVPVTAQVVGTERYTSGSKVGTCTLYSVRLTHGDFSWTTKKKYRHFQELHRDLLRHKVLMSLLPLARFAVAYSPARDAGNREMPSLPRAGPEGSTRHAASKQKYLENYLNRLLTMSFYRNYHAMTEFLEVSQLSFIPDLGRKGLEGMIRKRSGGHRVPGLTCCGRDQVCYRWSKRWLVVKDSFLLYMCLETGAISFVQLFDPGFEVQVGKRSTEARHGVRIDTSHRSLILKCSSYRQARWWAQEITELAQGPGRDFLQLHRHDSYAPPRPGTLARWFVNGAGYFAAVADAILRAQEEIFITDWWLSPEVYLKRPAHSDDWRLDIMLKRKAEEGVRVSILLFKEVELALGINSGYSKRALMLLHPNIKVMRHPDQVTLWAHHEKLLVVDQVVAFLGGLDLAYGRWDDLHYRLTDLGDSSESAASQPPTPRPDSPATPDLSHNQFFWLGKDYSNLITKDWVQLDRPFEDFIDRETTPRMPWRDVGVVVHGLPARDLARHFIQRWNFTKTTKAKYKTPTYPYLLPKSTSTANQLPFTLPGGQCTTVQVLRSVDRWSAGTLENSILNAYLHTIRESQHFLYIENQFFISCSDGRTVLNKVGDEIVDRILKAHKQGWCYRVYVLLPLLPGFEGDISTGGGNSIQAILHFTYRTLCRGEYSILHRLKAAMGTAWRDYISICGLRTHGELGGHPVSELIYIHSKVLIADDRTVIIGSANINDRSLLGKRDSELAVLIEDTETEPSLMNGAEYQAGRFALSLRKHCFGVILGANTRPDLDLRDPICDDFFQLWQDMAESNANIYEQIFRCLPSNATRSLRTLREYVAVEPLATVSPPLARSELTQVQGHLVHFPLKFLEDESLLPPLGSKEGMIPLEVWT

Phospholipase D1 = Phospholipase D1 (Homo sapiens, UniProt Q13393); experiment: cellular phospholipase D1 inhibition IC50 – cell-based, dose response (AID 602151); type: functional;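 further: cellular PLD1 assay in Calu-1 cells stimulated with PMA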
CAAX prenyl protease 2 [17] = target: T4, CAAX prenyl protease 2 (Saccharomyces cerevisiae S288c, UniProt Q03530); experiment: inhibition of Rce1p peptide cleavage – biochemical, plate reader, dry powder retest, dose response (AID 588851)
T4 sequence (Q03530 whole entry): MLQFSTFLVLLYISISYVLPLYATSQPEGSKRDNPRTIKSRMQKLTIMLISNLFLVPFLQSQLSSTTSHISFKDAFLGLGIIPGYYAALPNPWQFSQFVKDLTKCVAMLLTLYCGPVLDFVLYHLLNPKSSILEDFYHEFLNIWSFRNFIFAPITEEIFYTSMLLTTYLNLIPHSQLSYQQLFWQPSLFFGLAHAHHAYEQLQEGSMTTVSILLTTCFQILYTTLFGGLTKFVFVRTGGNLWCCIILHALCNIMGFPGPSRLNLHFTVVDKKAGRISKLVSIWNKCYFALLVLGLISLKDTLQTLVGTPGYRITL

CAAX prenyl protease 2 [18] = target: T4, CAAX prenyl protease 2; type: biochemical

## O=C(OC1CCN(CCCl)CC1)C(c1ccccc1)c1ccccc1
HEK293 [1]
  AC50: 24.3 µM (active)
[2]
  AC50: 24.2 µM (active)

## O=C(O)CCn1cc(/C=C/C(=O)c2ccc(Cl)cc2)c(-c2cccc(Br)c2)n1
Streptokinase A
  EC50: 0.874 µM (active)
[3]
  IC50: 27.8 µM (active)
Vero
  CC50: > 40 µM (active)
HEK293 [4]
  IC50: 17.9 µM (active)
[5]
  EC50: 4.35 µM (active)
Streptococcus
  EC50: 6.69 µM (active)
Phospholipase A2
  IC50: 8.65 µM (active)
HEK293 [6]
  IC50: 4.06 µM (active)
Genome polyprotein
  IC50: 52.4 µM (active)
HEK293 [7]
  IC50: 10.6 µM (active)
Cysteine protease ATG4B
  IC50: 13.5 µM (active)
HEK293 [8]
  EC50: 6.52 µM (active)

## COc1ccc2sc(-c3ccccc3OC)c(-c3ccc(OCCN4CCCC4)cc3)c2c1
[9]
  IC50: > 20 µM (inactive)
[10]
  EC50: 23.6 µM (active)
[11]
  EC50: 0.87 µM (active)
[12]
  EC50: 0.958 µM (active)
[13]
  EC50: 50.2 µM (active)
[14]
  AC50: 5.62 µM (active)

## COc1ccc(S(=O)(=O)N(C)C[C@@H]2Oc3c(NC(=O)c4cccc5ccccc45)cccc3C(=O)N([C@@H](C)CO)C[C@H]2C)cc1
INS1 [15]
  AC50: > 195 µM (inactive)
INS1 [16]
  AC50: 84.8 µM (active)

## C[C@@H](CN1CCC(n2c(=O)[nH]c3ccccc32)CC1)NC(=O)c1cc2cc(F)ccc2[nH]1
Phospholipase D2
  IC50: 0.13 µM (active)
Phospholipase D1
  IC50: 0.001 µM (active)

## Nc1nonc1-n1nnc(C(=O)N/N=C/c2cccc(Cl)c2)c1CSc1ccc(Cl)cc1
CAAX prenyl protease 2 [17]
  AC50: 3.15 µM (active)
CAAX prenyl protease 2 [18]
  AC50: 0.136 µM (active)
